Results: patent publication US20110008469A1, “ANTIMICROBIAL COMPOSITION AND METHODS AND APPARATUS FOR USE THEREOF” (FLORIDA GULF COAST UNIVERSITY, priority 2009, published 2011)

How the values were obtained:
V. fischeri = V. fischeri luminescence assay (killing); format: cell-based, Vibrio fischeri; conditions: for killing by biocide with varied detergent: 1 mM NH3, 0.5% EtOH; for decrease in luminescence: 2 mM; for killing by biocide with varied alcohol: 1 mM NH3, 0.05 mM CTAB; for effect of ethanol on V. fischeri luminescence: 1% ethanol alone
Experimental: V. fischeri was grown overnight until the culture reached log phase and were brightly luminescent. Since bacterial luminescence is an ATP driven event, light emission is directly related to the metabolism and energy charge state of the organism. […] Samples at given concentrations were added to V. fischeri in a 24 well plate. A small amount was placed in a 96 well plate, agitated, and the luminescence was read in a TECAN well plate reader. For all figures, the total time period that V. fischeri was exposed to each biocide or component was between five and fifteen minutes. […] The right side bars represent a final pH of 9. Low readings indicate killing. […] The purpose of this component is to fluidize the cell membrane to collapse the pH gradient.

[1] = Effectiveness or lethality of biocide composition with substituted components (test not described)
[2] = 0.05 mM detergent, pH 9.0 (FIG. 6)

Compound | killing by biocide with varied detergent (V. fischeri; [2]) | killing by biocide with varied detergent (V. fischeri; detergent raised to 1 mM, pH 9) | effectiveness as component in the composition and method of the invention [1] | killing by biocide with varied alcohol (V. fischeri; 0.5% alcohol, pH 9.0 (FIG. 7)) | killing by biocide with varied alcohol (V. fischeri; alcohol raised to 1%, pH 9) | also measured
CCCCCCCCCCCCCCCC[N+](C)(C)C.[Br-] [CTAB, Cetyl trimethylammonium bromide] | some degree of killing | kill effectively |  |  |  | 
CCCCCCCCCCCCCCCC[N+](C)(C)C.[Cl-] [CTAC, Cetyl trimetylammonium chloride] | some degree of killing | kill effectively |  |  |  | 
CCCCCCCCCCCCCCCCN [HDA, Hexadecylamine] |  |  |  |  |  | decrease in luminescence (V. fischeri; pH 7.5): 11%; decrease in luminescence (V. fischeri; pH 9): 29%; effect of HDA on V. fischeri luminescence (V. fischeri; HDA alone 0-2 mM, pH 7.5 (FIG. 2)): little to no effect; effect of HDA on V. fischeri luminescence (V. fischeri; HDA alone, higher concentrations (up to 2 mM), pH 9 (FIG. 2)): slight effect
CCCCCCCCCCCCOS(=O)(=O)[O-].[Na+] [SDS, Sodium dodecyl sulfate] | some degree of killing | kill effectively |  |  |  | 
CCCCCCCCCCCCCC[N+](C)(C)C.[Br-] [TTAB, Tetradecyl trimethyl ammonium bromide] | some degree of killing | kill effectively |  |  |  | 
CCCCCCCCCCCCCC[N+](C)(C)C.[Cl-] [TTAC, Tetradecyl trimethyl ammonium chloride] | some degree of killing | kill effectively |  |  |  | 
N [ammonia] |  |  |  |  |  | effect of ammonia on V. fischeri luminescence (V. fischeri; ammonia alone, 50 mM or lower, pH 7 or 9, versus pH adjusted H2O control (FIG. 3)): no difference from the control
Nc1ccccc1 [aniline] |  |  |  |  |  | lethality of biocide with aniline substituted for HAD ([1]; aniline as second hydroxophore component): very lethal
OCc1ccccc1 [benzyl alcohol] |  |  | effective | some degree of killing | kill effectively | 
CCO [ethanol] |  |  |  | some degree of killing | kill effectively | effect of ethanol on V. fischeri luminescence (V. fischeri; final pH 7, 5-15 min exposure (FIG. 1)): damage; effect of ethanol on V. fischeri luminescence (V. fischeri; final pH 9, 5-15 min exposure (FIG. 1)): damage; higher luminescence reading at pH 9 than same concentration at pH 7 (V. fischeri; 3% ethanol, pH 9 versus pH 7): 40%
CO [methanol] |  |  | effective | some degree of killing | kill effectively | 
CCCO [propanol] |  |  | effective | some degree of killing | kill effectively | 
butanol |  |  | effective | some degree of killing | kill effectively | 
